Here are results for eight compounds from patent US10035792B2, “Resorcinol derivative as HSP90 inhibitor” (priority 2015, dated 2018).

Each structure is given as a SMILES string.

The test system of data set [1] is A549 tumor cells. Put plainly: In vivo efficacy, A549 transplantation tumor in nude mice. As to conditions: A549 xenograft, 50 mg/kg intravenously twice a week. How it is done: (§1) A549 tumor cells were subcutaneously inoculated in the right armpit of nude mice in 5×10^6 cells/mouse, to form a transplantion tumor. When the volume reached 100-200 mm^3, the animals were randomly divided according to tumor volume, into the negative control group (n=5), the positive control group groups (n=5 in each group), and the experimental groups (n=5 in each group). The experimental groups were respectively injected intravenously with the positive drug Luminespib (50 mg/kg) and compound 1 (50 mg/kg) at different concentrations, twice a week, and the negative control group was administrated an equal amount of solvent simultaneously. The length (A) and width (B) of the tumor were measured twice a week with a vernier caliper, and the tumor volume was calculated according to V=A×B^2/2. Relative tumor volume (RTV) was calculated as follows: RTV=Vt/V0, wherein Vt is the tumor volume at the end of the administration, and V0 is the tumor volume measured before separation and administration. The pharmacodynamic evaluation index of antitumor activity is relative tumor proliferation rate T/C (%), and the calculation formula is: T/C (%)=TRTV/CRTV×100%, wherein TRTV: RTV of the treatment group; CRTV: RTV of the negative control group. Efficacy evaluation criteria: T/C %>60% is inefficient; T/C %≤60% and P<0.05 by statistical treatment is effective. The tumor growth inhibition rate (TGI) was calculated as follows: TGI (%)={[(CVt−CV0)−(TVt−TV0)]/(CVt−CV0)}×100%
(§2) Wherein, CVt is the tumor volume of the control group at the end of the administration; CV0 is the tumor volume of the control group before separation and administration; TVt is the tumor volume of the administration group at the end of the administration; and TV0 is the tumor volume of the administration group before separation and administration. The difference in tumor volume between the administration group and the control group was examined by t-test. At the same time, the body weights of nude mice in each group were weighed twice a week to preliminarily evaluate the toxic side effects of the drug.

The nature of data set [2]: in vivo. More on the design: species or system SD rats. As to conditions: male, SD, rat, iv, 1 mg/kg. How it is done:
SD rats were used as the subject animals. The drug concentrations in plasma, lung and breast tissue were measured by LC/MS/MS method at different times after the compound of Example 67 was intravenously injected at the tails of rats. The tissue distribution of the compounds of the present invention in rats was studied and their pharmacokinetic characteristics were evaluated. 2.1 Experimental Drugs: Luminespib, Ganetespib and the compound of Example 67. Healthy adult male SD rats, 100-200 g, 9 rats in total, purchased from Shanghai Slack Laboratory Animal Co., Ltd. The appropriate amounts of the samples were weighed. All of Luminespib, Ganetespib and the compound 67 of the present invention were formulated into clear solutions in […] in 10% DMSO/14% Cremophor RH40/76% D5W, for intravenous injection. 9 SD male rats were divided into three groups, three rats in each group. After normal feeding, administrations were carried out in tails by intravenous injection at the dose of 1 mg/kg. Samples were collected from blood, lung and breast tissues in three group rats at 0.5 h, 6 h and 24 h after administration. The blood samples were centrifuged at 4° C., 3000 rpm for 15 min within half an hour after collection, to separate and obtain plasma samples. The resulting plasma samples were placed in polypropylene tubes and stored at −80° C. for LC/MS/MS analysis. After the collection of the blood samples, the animals were sacrificed with CO2, followed by collection of the tissue samples. Each of the tissue samples was washed twice with cold deionized water and adhered to filter papers. Each of the tissue samples was then homogenized several times in MeOH/15 mM PBS (1:2) (5 mL MeOH/15 mM PBS (1:2) per gram of tissue, with a dilution factor of 6) to ensure the formation of homogeneous phase. The whole process was carried out below freezing point temperature. The homogenized samples were quickly frozen by using dry ice and stored at −80° C. for bioanalysis. The contents of the test compound in rat plasma, lung and breast tissue after injection administration were measured by LC/MS/MS.

In data set [3] the target is HSP90α (Homo sapiens (Human), UniProt P07900). Put plainly: Fluorescence polarization (FP) HSP90-alpha target binding assay. Particulars: fluorescence polarization; read-out: Target binding ability HSP90α FP IC50. Summed up:
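Displacement of 5 nM GM-BODIPY from 30 nM HSP90 measured by fluorescence polarization (ex 485/em 535 nm). Buffer: 100 mM Tris-Cl pH 7.4, 20 mM KCl, 6 mM MgCl2, 5 μg/mL BSA. Incubation 12–16 h at 4 °C. Percent inhibition from mP relative to compound-free and tracer-only controls.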

Data set [4] relates to human colon cancer cell line HCT116. Put plainly: Tumor cell growth inhibition, SRB staining, HCT116. Particulars: HCT-116, HCT116, 72 h. Type of data set: cell-based. How it is done: The growth inhibition assay of tumor cells was detected by sulforhodamine B (SRB) staining method. The specific steps were as follows: inoculating human colon cancer cell line HCT116 and human lung cancer cell line A549 (purchased from American Type Culture Collection, ATCC) at the logarithmic growth phase into a 96-well micro culture plate at an appropriate concentration of 4000 cells/well, 100 μL for each well; after culturing overnight, adding with the compound at different concentrations (100, 10, 1, 0.1, 0.01 μM) to react for 72 h, wherein triplicate wells were set up for each concentration, and solvent control wells with the corresponding concentration and zero wells without cells were also set up. After the completion of the reaction, the culture medium was removed from the adherent cells, the later was added with 10% (w/v) trichloroacetic acid (100 μL/well) at 4° C. to fix for 1 h, and then washed five times with distilled water. After drying at room temperature, 100 μL of SRB solution (4 mg/mL, dissolved in 1% glacial acetic acid) was added into each well, followed by incubation and staining for 15 min at room temperature. The uncombined SRB was removed by washing five times with 1% glacial acetic acid. After drying at room temperature, 100 μL of 10 mM Tris solution was added into each well, and the optical density (OD) at 515 nm was measured by a […] microplate reader. The inhibition rate of the drug to tumor cell growth was calculated according to the following equation: Inhibition rate (%)=(OD of control well-OD of drug well)/OD of control well×100%. The experiment was repeated twice.

In data set [5] the test system is human lung cancer cell line A549. Put plainly: Tumor cell growth inhibition, SRB staining, A549. Type of data set: cell-based. Particulars: A549, 72 h. Summed up:
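Growth inhibition by SRB staining: 4000 cells/well seeded overnight, then compound at 100, 10, 1, 0.1 and 0.01 μM for 72 h in triplicate. Fixed with TCA, OD read at 515 nm. Inhibition rate taken against solvent control; experiment done twice.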
A general note: In SRB staining, fixed cells bind dye roughly in proportion to their protein.

The subject of data set [6] is BT-474 tumor cells. Description: In vivo efficacy, BT-474 breast cancer transplantation tumor in nude mice. Particulars: BT-474 xenograft. How it is done: as §1, with “BT-474 tumor” for “A549 tumor”, “group (n=6),” for “group (n=5),”, “groups (n=6” for “groups (n=5”, “drug Ganetespib (20” for “drug Luminespib (50”, “compound 67 (10 mg/kg and 20” for “compound 1 (50”, “concentrations, three times” for “concentrations, twice”
as §2

The mark [7] stands for this setting: concentration in breast tissue (nM).
Setting [8] is: 10 mpk intravenously three times a week.
The mark [9] stands for this setting: 20 mpk intravenously three times a week.

`CCNC(=O)c1noc(-c2cc(C(C)C)c(O)cc2O)c1-c1ccc(CN2CCOCC2)cc1` [Luminespib]: the “TGI (%) Day 7” value in data set [1] (Day 7) stood at 18%. For the same compound, in data set [1] (Day 11), the “TGI (%) Day 11” value worked out at 34%. Also, the “TGI (%) Day 14 (stopping administration)” value in data set [1] (Day 14) is 49%. In data set [1] (Day 17), the “TGI (%) Day 17” value is on record as 52%. The “TGI (%) Day 28” value in data set [1] (Day 28) stood at 35%. In data set [2], the “pulmonary exposure dose” value stood at 5284 nM·h. Moreover, the concentration at 0.5 h in data set [2] (setting [7]) stood at 104 nM; in data set [2] (plasma concentration (nM)), 67.1 nM; in data set [2] (pulmonary concentration (nM)), 1000 nM. Also, the concentration at 6 h in data set [2] (setting [7]) is 61.4 nM; in data set [2] (pulmonary concentration (nM)), 257 nM. Besides, the concentration at 24 h in data set [2] (pulmonary concentration (nM)) came out at 35.9 nM.
With `CCNC(=O)c1noc(-c2cc(C(C)C)c(O)cc2O)c1C1=CC2CN(C)CC2C1` (stereo not drawn) [Example 14, 5-(2,4-dihydroxyl-5-isopropyl-phenyl)-N-ethyl-4-(2-methyl-1,2,3,3a,4,6a-hexahydrocyclopenta[c]pyrrol-5-yl)isoxazole-3-carboxamide], the IC50 – broadly, the concentration that inhibits the measured activity by half – in data set [3] is less than 20 nM. For the same compound, the EC50 (in general, the midpoint of the concentration-response curve) in data set [4] was less than 20 nM.
On to `CCNC(=O)c1noc(-c2cc(C(C)C)c(O)cc2O)c1-c1ccc2c(c1)N(C)CCC2` [Example 2, 5-(2,4-dihydroxyl-5-isopropylphenyl)-N-ethyl-4-(1-methyl-1,2,3,4-tetrahydroquinolin-7-yl)isoxazole-3-carboxamide], for which the half-inhibitory concentration (IC50) in data set [3] fell in the range of 20 to 100 nM. The EC50 in data set [4] is 20 to 100 nM.
For the compound `CCNC(=O)c1noc(-c2cc(C(C)C)c(O)cc2O)c1-c1ccc2c(c1)CCCN2C` [Example 3, 5-(2,4-dihydroxyl-5-isopropylphenyl)-N-ethyl-4-(1-methyl-1,2,3,4-tetrahydroquinolin-6-yl)isoxazole-3-carboxamide], the IC50 in data set [3] lay in the range of 20 to 100 nM. The compound also returned an EC50 in data set [4] of 20 to 100 nM.
Consider `CCNC(=O)c1nsc(-c2cc(C(C)C)c(O)cc2O)c1-c1ccc2c(c1)CCN(C)C2` [Example 13, 5-(2,4-dihydroxyl-5-isopropyl-phenyl)-N-ethyl-4-(2-methyl-1,2,3,4-tetrahydroisoquinolin-6-yl)isothiazole-3-carboxamide], for which the IC50 in data set [3] was more than 100 nM. Moreover, the EC50 in data set [4] was more than 100 nM.
Turning to `CCNC(=O)c1onc(-c2cc(C(C)C)c(O)cc2O)c1-c1ccc2c(c1)CCNC2` [Example 67, 3-(2,4-dihydroxyl-5-isopropylphenyl)-N-ethyl-4-(1,2,3,4-tetrahydroisoquinolin-6-yl)isoxazole-5-carboxamide], the IC50 in data set [3] was less than 20 nM. The EC50 in data set [5] is less than 20 nM. Further, in data set [2], the “breast tissue exposure dose” value worked out at 7226 nM·h, the “plasma exposure dose” value was 415 nM·h and the “pulmonary exposure dose” value amounted to 30933 nM·h. In addition, in data set [2] (setting [7]), the concentration at 0.5 h stood at 395 nM, the concentration at 6 h stood at 376 nM and the concentration at 24 h was found to be 199 nM. In data set [2] (plasma concentration (nM)), the concentration at 0.5 h was 115 nM, the concentration at 6 h was 9.98 nM and the concentration at 24 h turned out to be 3.72 nM. In data set [2] (pulmonary concentration (nM)), this compound showed a concentration at 0.5 h of 3040 nM, a concentration at 6 h of 1530 nM and a concentration at 24 h of 613 nM. Further, in data set [6] (setting [8]), the “TGI (%) Day 21” value came to 137% and the “TGI (%) Day 35” value was found to be 120%. Further, in data set [6] (setting [9]), the “TGI (%) Day 21” value is given as 135% and the “TGI (%) Day 35” value is recorded as 129%.
In data set [2] (setting [7]), `CC(C)c1cc(-c2n[nH]c(=O)n2-c2ccc3c(ccn3C)c2)c(O)cc1O` [Ganetespib] yielded a concentration at 0.5 h of 352 nM and a concentration at 6 h of 70.9 nM. In data set [2] (plasma concentration (nM)), this compound yielded a concentration at 0.5 h of 267 nM and a concentration at 6 h of 4.46 nM. In data set [2] (pulmonary concentration (nM)), this compound yielded a concentration at 0.5 h of 1010 nM and a concentration at 6 h of 101 nM. For the same compound, in data set [6] (setting [9]), the “TGI (%) Day 21” value amounted to 124% and the “TGI (%) Day 35” value turned out to be 108%.
As to `CCNC(=O)c1onc(-c2cc(C(C)C)c(O)cc2O)c1-c1ccc2c(c1)CCN(C(C)C)C2` [Example 68, 3-(2,4-dihydroxyl-5-isopropylphenyl)-N-ethyl-4-(2-isopropyl-1,2,3,4-tetrahydroisoquinolin-6-yl)isoxazole-5-carboxamide], the half-inhibitory concentration (IC50) in data set [3] is less than 20 nM. Further, in data set [5], the concentration for a half-maximal effect (EC50) was less than 20 nM.
